According to patent US8735414B2 (priority 2009, dated 2014):

What was measured:
[1] = tested on: bicistronic HCV replicon (replicon RNA, GenBank Accession No. AJ242654); assay: HCV Replicon Assay; format: cell-based; settings: Hepatitis C virus, 72 h, read-out: Replicon IC50

| Structure (SMILES) | IC50 [1] [nM] | melting point [°C] |
| --- | --- | --- |
| Cc1cc2c(cc1F)c(C(N)=O)c(-c1ccc(S(=O)(=O)N[C@@H](C)C(F)(F)F)cn1)n2C1CCCCC1 [compound 706, 1-cyclohexyl-5-fluoro-6-methyl-2-(5-{[(2S)-1,1,1-trifluoropropan-2-yl]sulfamoyl}pyridin-2-yl)-1H-indole-3-carboxamide] | < 500 | 273 to 279 |
| Cc1cc2c(cc1F)c(C#N)c(-c1ccc(NS(=O)(=O)N[C@@H](C)C(F)(F)F)cn1)n2C1CCCC1 [compound 836, N-[6-(3-cyano-1-cyclopentyl-5-fluoro-6-methyl-1H-indol-2-yl)pyridin-3-yl]-N′-[(2S)-1,1,1-trifluoropropan-2-yl]sulfuric diamide] | 500 to 2000 | 206 to 208 |
| CCCS(=O)(=O)Nc1ccc(-c2c(C#N)c3ccc(Oc4nccnc4C#N)cc3n2C2CCC2)nc1 [compound 273, N-(6-{3-cyano-6-[(3-cyanopyrazin-2-yl)oxy]-1-cyclobutyl-1H-indol-2-yl}pyridin-3-yl)propane-1-sulfonamide] | < 500 | 252 to 254 |
| C[C@H](NS(=O)(=O)c1ccc(-c2c(C#N)c3ccc(Cl)cc3n2C2CCCCC2)nc1)C(F)(F)F [compound 515, 6-(6-chloro-3-cyano-1-cyclohexyl-1H-indol-2-yl)-N-[(2S)-1,1,1-trifluoropropan-2-yl]pyridine-3-sulfonamide] | < 500 | 217 to 224 |
| Cc1cc2c(cc1Cl)c(C#N)c(-c1ccc(S(=O)(=O)N[C@@H](C)C(F)(F)F)cn1)n2-c1ncccn1 [compound 785, 6-[5-chloro-3-cyano-6-methyl-1-(pyrimidin-2-yl)-1H-indol-2-yl]-N-[(2S)-1,1,1-trifluoropropan-2-yl]pyridine-3-sulfonamide] | < 500 | 210 to 212 |
| CC(C)(C)NS(=O)(=O)c1ccc(-c2c(C#N)c3cc(F)c(O)cc3n2C2CCC2)nc1 [compound 719, N-tert-butyl-6-(3-cyano-1-cyclobutyl-5-fluoro-6-hydroxy-1H-indol-2-yl)pyridine-3-sulfonamide] | 500 to 2000 | 242 to 245 |
| CC(C)NS(=O)(=O)c1cnc(-c2c(C#N)c3cc(F)ccc3n2C2CCC2)nc1 [compound 416, 2-(3-cyano-1-cyclobutyl-5-fluoro-1H-indol-2-yl)-N-(propan-2-yl)pyrimidine-5-sulfonamide] | < 500 | 195 to 200 |
| Cc1c(F)cc2c(C#N)c(-c3ccc(S(=O)(=O)N[C@H](C)C(F)(F)F)cn3)n(C3CCC3)c2c1F [compound 666, 6-(3-cyano-1-cyclobutyl-5,7-difluoro-6-methyl-1H-indol-2-yl)-N-[(2R)-1,1,1-trifluoropropan-2-yl]pyridine-3-sulfonamide] | < 500 | 185 to 190 |
| Cc1cccc(-n2c(-c3ccc(S(=O)(=O)N[C@@H](C)C(F)(F)F)cn3)c(C#N)c3cc(F)c(C)cc32)n1 [compound 923, 6-[3-cyano-5-fluoro-6-methyl-1-(6-methylpyridin-2-yl)-1H-indol-2-yl]-N-[(2S)-1,1,1-trifluoropropan-2-yl]pyridine-3-sulfonamide] | < 500 | 219 to 225 |
| CCc1cc2c(cc1F)c(C#N)c(-c1ccc(S(=O)(=O)N[C@@H](C)C(F)(F)F)cn1)n2-c1cccc(C#N)c1 [compound 1012, 6-[3-cyano-1-(3-cyanophenyl)-6-ethyl-5-fluoro-1H-indol-2-yl]-N-[(2S)-1,1,1-trifluoropropan-2-yl]pyridine-3-sulfonamide] | 500 to 2000 | 244 to 248 |
| C[C@H](NS(=O)(=O)c1ccc(-c2c(C#N)c3ccc(Cl)cc3n2-c2ccccn2)nc1)C(F)(F)F [compound 437, 6-[6-chloro-3-cyano-1-(pyridin-2-yl)-1H-indol-2-yl]-N-[(2S)-1,1,1-trifluoropropan-2-yl]pyridine-3-sulfonamide] | < 500 | 177 to 178 |
| Cc1cc2c(cc1F)cc(-c1ccc(S(=O)(=O)N[C@@H](C)C(F)(F)F)cn1)n2-c1nccs1 [compound 903, 6-[5-fluoro-6-methyl-1-(1,3-thiazol-2-yl)-1H-indol-2-yl]-N-[(2S)-1,1,1-trifluoropropan-2-yl]pyridine-3-sulfonamide] | < 500 | 224 to 230 |
| Cc1cc2c(cc1F)c(C(N)=O)c(-c1ccc(S(=O)(=O)N[C@@H](C)C(F)(F)F)cn1)n2-c1ccccn1 [compound 874, 5-fluoro-6-methyl-1-(pyridin-2-yl)-2-(5-{[(2S)-1,1,1-trifluoropropan-2-yl]sulfamoyl}pyridin-2-yl)-1H-indole-3-carboxamide] | < 500 | 142 to 148 |
| CC(C)NS(=O)(=O)c1ccc(-c2c(C#N)c3ccc(OC4CCC4)cc3n2C2CCC2)cn1 [compound 4, 5-[3-cyano-1-cyclobutyl-6-(cyclobutyloxy)-1H-indol-2-yl]-N-(propan-2-yl)pyridine-2-sulfonamide] | 2000 to 5000 | 178 to 180 |
| Cc1ccc2c(C#N)c(-c3ccc(S(=O)(=O)NC(CF)CF)cn3)n(C3CCC3)c2c1F [compound 422, 6-(3-cyano-1-cyclobutyl-7-fluoro-6-methyl-1H-indol-2-yl)-N-(1,3-difluoropropan-2-yl)pyridine-3-sulfonamide] | < 500 | 186 to 201 |
| C[C@@H](NS(=O)(=O)c1ccc(-c2c(C#N)c3cc(F)c(OC(F)F)cc3n2C2CCC2)nc1)C(F)(F)F [compound 648, 6-[3-cyano-1-cyclobutyl-6-(difluoromethoxy)-5-fluoro-1H-indol-2-yl]-N-[(2R)-1,1,1-trifluoropropan-2-yl]pyridine-3-sulfonamide] | < 500 | 173 to 175 |
| CC(C)NS(=O)(=O)c1cnc(-c2c(C#N)c3ccc(F)cc3n2C2CCCCC2)nc1 [compound 251, 2-(3-cyano-1-cyclohexyl-6-fluoro-1H-indol-2-yl)-N-(propan-2-yl)pyrimidine-5-sulfonamide] | 500 to 2000 | 200 to 202 |
| CC(C)NS(=O)(=O)c1cnc(-c2c(C(N)=O)c3ccc(OC(F)F)cc3n2C2CCCCC2)nc1 [compound 747, 1-cyclohexyl-6-(difluoromethoxy)-2-[5-(propan-2-ylsulfamoyl)pyrimidin-2-yl]-1H-indole-3-carboxamide] | < 500 | 216 to 218 |
| Cc1cc2c(cc1F)c(C#N)c(-c1ccc(S(=O)(=O)NC(C)(C)C(F)(F)F)cn1)n2C1CCCCC1 [compound 705, 6-(3-cyano-1-cyclohexyl-5-fluoro-6-methyl-1H-indol-2-yl)-N-(1,1,1-trifluoro-2-methylpropan-2-yl)pyridine-3-sulfonamide] | < 500 | 248 to 254 |
| CCc1cc2c(cc1F)c(C#N)c(-c1ccc(S(=O)(=O)N[C@@H](C)C(F)(F)F)cn1)n2-c1ccc(C#N)cc1 [compound 1007, 6-[3-cyano-1-(4-cyanophenyl)-6-ethyl-5-fluoro-1H-indol-2-yl]-N-[(2S)-1,1,1-trifluoropropan-2-yl]pyridine-3-sulfonamide] | < 500 | 288 to 293 |
| C[C@H](NS(=O)(=O)c1cnc(-c2c(C#N)c3ccc(C4CC4)cc3n2C2CCCC2)nc1)C(F)(F)F [compound 401, 2-(3-cyano-1-cyclopentyl-6-cyclopropyl-1H-indol-2-yl)-N-[(2S)-1,1,1-trifluoropropan-2-yl]pyrimidine-5-sulfonamide] | < 500 | 238 to 239 |
| Cc1cc2c(cc1F)c(C#N)c(-c1ccc(S(=O)(=O)NC(C)(C)C)cn1)n2C1CCC1 [compound 651, N-tert-butyl-6-(3-cyano-1-cyclobutyl-5-fluoro-6-methyl-1H-indol-2-yl)pyridine-3-sulfonamide] | < 500 | 223 to 228 |
| N#Cc1c(-c2ccc(S(=O)(=O)NC(CF)CF)cn2)n(C2CCCC2)c2ccc(OC(F)(F)F)cc12 [compound 34, 6-[3-cyano-1-cyclopentyl-5-(trifluoromethoxy)-1H-indol-2-yl]-N-(1,3-difluoropropan-2-yl)pyridine-3-sulfonamide] | < 500 | 159 to 160 |
| Cc1cc2c(C#N)c(-c3ccc(S(=O)(=O)N[C@@H](C)C(F)(F)F)cn3)n(C3CCC3)c2cc1Cl [compound 506, 6-(6-chloro-3-cyano-1-cyclobutyl-5-methyl-1H-indol-2-yl)-N-[(2S)-1,1,1-trifluoropropan-2-yl]pyridine-3-sulfonamide] | < 500 | 198 to 198.5 |
| Cc1cc2c(cc1F)c(C(N)=O)c(-c1ccc(S(=O)(=O)NC3(C(F)(F)F)CC3)cn1)n2C1CCCCC1 [compound 857, 1-cyclohexyl-5-fluoro-6-methyl-2-(5-{[1-(trifluoromethyl)cyclopropyl]sulfamoyl}pyridin-2-yl)-1H-indole-3-carboxamide] | < 500 | 273 to 274 |
| CCn1c(-c2ccc(N(C(C)C)S(=O)(=O)CC)cn2)c(C#N)c2ccc(OC(C)C)cc21 [compound 282, N-{6-[3-cyano-1-ethyl-6-(propan-2-yloxy)-1H-indol-2-yl]pyridin-3-yl}-N-(propan-2-yl)ethanesulfonamide] | 500 to 2000 | 170 to 175 |
| N#Cc1c(-c2ncc(S(=O)(=O)NC(CF)CF)cn2)n(C2CCCC2)c2cc(OC(F)(F)F)ccc12 [compound 178, 2-[3-cyano-1-cyclopentyl-6-(trifluoromethoxy)-1H-indol-2-yl]-N-(1,3-difluoropropan-2-yl)pyrimidine-5-sulfonamide] | < 500 | 181 to 187 |
| CCc1cc2c(cc1F)c(C(N)=O)c(-c1ccc(S(=O)(=O)NC(C)(C)C(F)(F)F)cn1)n2C1CCCC1 [compound 871, 1-cyclopentyl-6-ethyl-5-fluoro-2-{5-[(1,1,1-trifluoro-2-methylpropan-2-yl)sulfamoyl]pyridin-2-yl}-1H-indole-3-carboxamide] | < 500 | 185 to 188 |
